Consider six compounds from patent US7169777B2, “Melanocortin receptor agonists” (Eli Lilly and Company, priority 2001, dated 2007).

Test [1] concerns the target T1, MC4 (Homo sapiens, UniProt P32245). In words: Melanocortin receptor whole cell cAMP accumulation assay (MC4R). Also on record: expressed in transfected cells; host or cells: HEK 293 (stably transfected). The settings on record: for Relative Eff.: relative efficacy compared to NDP-alpha-MSH, defined as a 100% agonist. The test is classed as cell-based. The protocol:
Melanocortin Receptor Whole Cell cAMP Accumulation Assay
These are serially diluted in 100% DMSO. The compound plate is further diluted 1:200 in compound dilution buffer (HBSS-092, 1 mM Ascorbic Acid, 1 mM IBMX, 0.6% DMSO, 0.1% BSA). […] Transfer 20 μl from this plate into four PET 96-well plates (all assays are performed in duplicate for each receptor).
[…] cells stably transfected with the MC3R and MC4R were grown in DMEM containing 10% FBS and 1% Antibiotic/Antimycotic Solution. On the day of the assay the cells were dislodged with enzyme free cell dissociation solution and resuspended in cell buffer (HBSS-092, 0.1% BSA, 10 mM HEPES) at 1×e6 cells/ml. Add 40 μl of cells/well to the PET 96-well plates containing 20 ul diluted compound and control. Incubate @ 37° C. in a waterbath for 20 minutes. Stop the assay by adding 50 μl Quench Buffer (50 mM Na Acetate, 0.25% Triton X-100).
Radioligand binding assays were run in SPA buffer (50 mM Sodium Acetate, 0.1% BSA). The beads, antibody and radioligand were diluted in SPA buffer to provide sufficient volume for each 96-well plate. […] The plates were counted in a Wallac MicroBeta counter after a 12-hour incubation.
The data was converted to pmoles cAMP using a standard curve assayed under the same conditions. The data was analyzed using Activity Base software to generate agonist potencies (EC50) and percent relative efficacy data to NDP-aMSH.
Background: Cyclic AMP is a second messenger, typically raised through Gs and lowered through Gi signalling.

The target in test [2] is T1, MC4. In words: Radioligand binding assay (125I-NDP-alpha-MSH competition, SPA, membranes of transfected HEK 293 cells). Also on record: expressed in transfected cells; host or cells: HEK 293 (stably transfected), membrane preparation. The protocol: HEK 293 cells transfected with human or rat melanocortinin receptors are grown either as adherent monolayers or suspension culture. Monolayer cells are grown in roller bottle cultures at 37° C. and 5% CO2/air atmosphere in a 3:1 mixture of Dulbecco's modified Eagle medium (DMEM) and Ham's F12 containing 25 mM […], 100 units/ml penicillin G, 100 microgram/ml streptomyocin, 250 nanogram/ml amphoterin B, 300 microgram/ml genticin and supplemented with 5% fetal bovine serum. […] Cells are harvested by centrifugation, washed in PBS, and pellets are stored frozen at −80° C. until membrane preparations.
The cell pellets are resuspended in 10 volumes of membrane preparation buffer (i.e., 1 g pellet to 10 ml buffer) having the following composition: 50 mM Tris pH 7.5 @ 4° C., 250 mM sucrose, 1 mM MgCl2, Complete® EDTA-free protease inhibitor tablet (Boehringer Mannheim), and 24 micrograms/ml DNase I (Sigma, St. Louis, Mo.). The cells are homogenized with a motor-driven dounce using 20 strokes, and the homogenate is centrifuged at 38,000×g at 4° C. for 40 minutes. The pellets are resuspended in membrane preparation buffer at a concentration of 2.5–7.5 mg/ml and 1 milliliter aliquots of membrane homogenates are quickly frozen in liquid nitrogen and then stored at −80° C.
Solutions of a compound of formula I (300 picomolar to 30 micromolar) or unlabelled NDP-alpha-MSH (1 picomolar to 100 nanomolar) are added to 150 microliters of membrane binding buffer to yield final concentrations (listed in parantheses). The membrane binding buffer has the following composition: 25 mM HEPES pH 7.5; 10 mM CaCl2; 0.3% BSA). […] Additionally, fifty microliters of SPA beads (5 mg/ml) are added and the resulting mixture is agitated briefly and incubated for 10 hours at room temperature. The radioactivity is quantified in a Wallac Trilux Microplate Scintillation counter. IC50 values obtained in competition assays are converted to affinity constants (Ki values) using the Cheng-Prusoff equation: Ki=IC50/(1+D/Kd).

The subject of another test is rodents. Conditions: injected intracerebroventricularly (ICV); NPY, ob/ob, agouti, fasted models; cited from earlier work.
Setting [3] is: MC4 agonist potency, read-out: MC4 EC50.
[4] abbreviates: 125I-NDP-alpha-MSH competition, Ki from IC50 by Cheng-Prusoff, read-out: MC4 Binding Ki.

Structures can show the parent of a compound that is named as a salt. Where two headings read alike, the source gives them in different places.

T1 sequence (P32245 whole entry): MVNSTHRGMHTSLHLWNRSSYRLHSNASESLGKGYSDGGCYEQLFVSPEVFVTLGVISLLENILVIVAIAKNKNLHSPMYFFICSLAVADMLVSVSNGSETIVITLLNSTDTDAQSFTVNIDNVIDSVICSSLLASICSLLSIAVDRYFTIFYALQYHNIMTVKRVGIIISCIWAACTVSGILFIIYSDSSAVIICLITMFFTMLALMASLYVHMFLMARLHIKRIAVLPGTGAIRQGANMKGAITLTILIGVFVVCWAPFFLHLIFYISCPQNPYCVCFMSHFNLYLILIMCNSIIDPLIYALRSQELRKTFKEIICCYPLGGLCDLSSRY

For `CC(C)CN(CC(C1CCCCC1)N1CCN(C(=O)C(Cc2ccc(Cl)cc2)NC(=O)CC2NCc3ccccc32)CC1)S(C)(=O)=O` (single isomer, unassigned) [Example N71, N-(1-(4-Chloro-benzyl)-2-{4-[1-cyclohexyl-2-(isobutyl-methanesulfonyl-amino)-ethyl]-piperazin-1-yl}-2-oxo-ethyl)-2-(2,3-dihydro-1H-isoindol-1-yl)-acetamide dihydrochloride salt], the concentration giving a half-maximal response (EC50) (in general, the concentration giving half of the maximal effect) at MC4 [1] (setting [3]) turned out to be 8.4 nM. In addition, the “Relative Eff.” value at MC4 [1] is reported as 102.6. The inhibition constant Ki (in general, a measure of affinity in units of concentration, obtained from inhibition or displacement) on MC4 [2] (setting [4]) was 11.3 nM.

Take melanotanin-II [MT-II]: the food intake result in the test on rodents is recorded as “reduces food intake”.

As for SHU-9119, the food intake entry with rodents was “reverses this effect and can induce hyperphagia”.

Regarding `CC(C)CC(CC(C)C)N1CCN(C(=O)[C@@H](Cc2ccc(Cl)cc2)NC(=O)CC2NCc3ccccc32)CC1.Cl.Cl` (some centres unmarked) [Compd 3251], at MC4 [1] (setting [3]), the EC50 stood at 76.7 nM. In addition, the “Relative Eff.” value on MC4 [1] stood at 67.0. In addition, on MC4 [2] (setting [4]), the Ki was determined as 5.8 nM.

Regarding `CCN(CC)CC(c1ccccc1F)N1CCN(C(=O)[C@@H](Cc2ccc(Cl)cc2)NC(=O)[C@H]2Cc3ccccc3C(C)(C)N2)CC1` (some centres unmarked) [Compd 814], the concentration for a half-maximal effect (EC50) on MC4 [1] (setting [3]) was 127 nM. The “Relative Eff.” value at MC4 [1] is 108.6. Moreover, the Ki at MC4 [2] (setting [4]) came out at 18.1 nM.

`O=C(CC1NCc2ccccc21)N[C@H](Cc1ccc(Cl)cc1)C(=O)N1CCN(C(CC2CCCCC2)CN2CCOCC2)CC1` (mixture of isomers) [Example N38, N-{1-(4-chloro-benzyl)-2-[4-(1-cyclohexylmethyl-2-morpholine-4-yl-ethyl)-piperazin-1-yl]-2-oxo-ethyl}-2-(2,3-dihydro-1H-isoindol-1-yl)-acetamide tri(trifluoroacetate) salt]: at MC4 [1], the EC50 is 69.3 nM and the “Relative Eff.” value is given as 115.6. In addition, on MC4 [2], affinity was put at a Ki of 10 nM.
